Laboratory results: ChEMBL document CHEMBL2073909 (J Pharmacol Exp Ther, 1999)

Legend:
[1] = molecular target: T1, Hepatic sodium/bile acid cotransporter (Homo sapiens, UniProt Q14973); type: functional, cell-based, HeLa
T1 sequence (Q14973 whole entry): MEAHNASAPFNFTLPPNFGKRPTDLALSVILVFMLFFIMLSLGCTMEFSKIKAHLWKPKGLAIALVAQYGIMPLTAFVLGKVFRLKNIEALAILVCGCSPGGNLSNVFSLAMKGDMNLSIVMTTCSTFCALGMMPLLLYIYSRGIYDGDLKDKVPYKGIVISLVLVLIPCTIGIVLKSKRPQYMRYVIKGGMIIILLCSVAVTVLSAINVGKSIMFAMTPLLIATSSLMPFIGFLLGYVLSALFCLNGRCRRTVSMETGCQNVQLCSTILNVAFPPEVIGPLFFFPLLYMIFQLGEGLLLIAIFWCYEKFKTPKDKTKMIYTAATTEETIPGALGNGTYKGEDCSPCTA

[2] = molecular target: T1, Hepatic sodium/bile acid cotransporter; experiment: TP_TRANSPORTER: inhibition of Taurocholate uptake (Taurocholate: 5 uM, Chlorpropamide: 100 uM) in NTCP-expressing HeLa cells; type: functional, cell-based
[3] = molecular target: T1, Hepatic sodium/bile acid cotransporter; experiment: TP_TRANSPORTER: inhibition of Taurocholate uptake (Taurocholate: 5 uM, Progesterone: 100 uM) in NTCP-expressing HeLa cells; type: functional, cell-based
[4] = molecular target: T1, Hepatic sodium/bile acid cotransporter; experiment: TP_TRANSPORTER: inhibition of Taurocholate uptake (Taurocholate: 5 uM, Deoxycholate: 100 uM) in NTCP-expressing HeLa cells; type: functional, cell-based

| SMILES | IC50 [1] [µM] | also measured |
| --- | --- | --- |
| CC(C)NC[C@H](O)COc1cccc2ccccc12 [LEVOPROPRANOLOL] | 6.1 |  |
| C[C@H](CCC(=O)O)[C@H]1CC[C@H]2[C@@H]3[C@@H](O)C[C@@H]4C[C@H](O)CC[C@]4(C)[C@H]3CC[C@]12C [URSODIOL] | 3.6 |  |
| CCCNC(=O)NS(=O)(=O)c1ccc(Cl)cc1 [CHLORPROPAMIDE] |  | Inhibition [2]: inhibitor [(at a rough estimate) 30 % inhibition] |
| O=C1OC(c2ccc(O)c(S(=O)(=O)O)c2)(c2ccc(O)c(S(=O)(=O)O)c2)c2c(Br)c(Br)c(Br)c(Br)c21 [SULFOBROMOPHTHALEIN SODIUM] | 7.3 |  |
| CC(=O)N1CCN(c2ccc(OCC3COC(Cn4ccnc4)(c4ccc(Cl)cc4Cl)O3)cc2)CC1 (stereo not drawn) [KETOCONAZOLE] | 264 |  |
| CC(C)NCC(O)COc1cccc2ccccc12 (stereo not drawn) [PROPRANOLOL] | 5.5 |  |
| CC(=O)[C@H]1CC[C@H]2[C@@H]3CCC4=CC(=O)CC[C@]4(C)[C@H]3CC[C@]12C [PROGESTERONE] |  | Inhibition [3]: inhibitor [(at a rough estimate) 80 % inhibition] |
| C[C@H](CCC(=O)O)[C@H]1CC[C@H]2[C@@H]3CC[C@@H]4C[C@H](O)CC[C@]4(C)[C@H]3C[C@H](O)[C@]12C [DEOXYCHOLIC ACID] |  | Inhibition [4]: inhibitor [(at a rough estimate) 70 % inhibition] |
